Reference: patent US6352630B1, “Electrochemical system for determining blood coagulation time” (Asulab S.A., priority 1999, dated 2002)

Target: T1, thrombin enzyme (Homo sapiens, UniProt P00734)
T1 construct: from tissue; host or cells: whole blood (drop of blood, 10 µl)
Assay: specificity of the specific reagent vis-à-vis the thrombin enzyme, progressive inhibition by r-hirudin
Format: biochemical
Conditions: whole blood, thrombin inhibited by increasing r-hirudin
Description: In the experiments reported hereinafter, potentiostatic measurements were performed by chronoamperometry by means of a potentiostat PGP 201 connected to the Vm1 software of Radiometer (Copenhagen) allowing the following conditions to be obtained:
The surface of the working electrode of the sensor used is 0.035 cm^2 and the sample quantity, drop of blood, or reference solution is 10 μl. the recording of measurements starts 10 seconds after the sample is deposited. The oligopeptide used, hereinafter designated according to use by <>, selected from those indicated previously, is:
Given that whole blood contains extremely numerous constituents, the present experiment allows it to be shown that only the thrombin enzyme is capable of cutting the specific reagent substrate. The experiment is performed in the optimisation conditions defined by experiment 3 (namely PC/PS in the ratio 25/75, Hepes buffer and lyophilisation) starting with a dilution in equal parts of blood and buffer solution and progressively inhibiting the thrombin enzyme by increasing concentrations of r-hirudin (r-hirudin 2000 ATU/bulb, available from Pentapharm AG, Basel, Switzerland) which replace the buffer solution, preferably having checked that the factor Xa is not inhibited by r-hirudin. […]

Tos-Gly-Pro-Arg-3-chloro-4-hydroxyanilide, 2HCl [substrate]
cutting of the substrate, selectivity: selectively cut off by thrombin
